# In ChEMBL document CHEMBL1123951, “Triazolines. 14. 1,2,3-Triazolines and triazoles, a new class of anticonvulsants. Drug design and structure-activity relationships” (J Med Chem, 1988):
# Key:
# Mus musculus [1] = organism: Mus musculus; assay: Anticonvulsant activity in mice, measured by maximal electroshock seizure (MES) test.; format: functional
# [2] = Protective index (Pi) was measured as the ratio of TD50/ED50 value in MES test; format: ADME
# Mus musculus [3] = organism: Mus musculus; assay: Neurological deficit in mouse measured by rotarod test; format: functional
# [4] = Protective index (PI), anticonvulsant activity, ratio of TD50/ED50 value in maximal electroconvulsive shock seizure (MES) test; format: ADME, organism-based; conditions: mouse, in vivo
# [5] = Protective index (PI),anticonvulsant activity, ratio of TD50/ED50 value in scMet test; format: ADME, organism-based; conditions: mouse, in vivo
# Mus musculus [6] = assay: Anticonvulsant activity in mice, measured by subcutaneous pentylenetetrazole seizure (scMet) test.; format: functional; conditions: sc
smiles,measurement,setting,value
COc1ccc(-n2nncc2-c2ccncc2)cc1,ED50,Mus musculus [1],311 mg/kg
same,selectivity ratio,[2],1.75
same,TD50,Mus musculus [3],545 mg/kg
FC(F)(F)c1ccc(N2N=NCC2c2ccncc2)cc1 (configuration not stated),ED50,Mus musculus [1],689 mg/kg
same,selectivity ratio,[4],> 2.9
same,selectivity ratio,[5],> 4.8
same,ED50,Mus musculus [6],421 mg/kg
same,TD50,Mus musculus [3],> 2000 mg/kg
Brc1ccc(-n2nncc2-c2cccnc2)cc1,ED50,Mus musculus [1],87.2 mg/kg
same,selectivity ratio,[4],5.7
same,selectivity ratio,[5],12.2
same,ED50,Mus musculus [6],40.6 mg/kg
same,TD50,Mus musculus [3],496 mg/kg
c1ccc(-n2nncc2-c2ccccn2)cc1,ED50,Mus musculus [1],41.1 mg/kg
same,selectivity ratio,[4],2.1
same,selectivity ratio,[5],3.4
same,ED50,Mus musculus [6],25.6 mg/kg
same,TD50,Mus musculus [3],87.9 mg/kg
Fc1ccc(-n2nncc2-c2ccncc2)cc1,ED50,Mus musculus [1],91.6 mg/kg
same,selectivity ratio,[4],2
same,selectivity ratio,[5],1.5
same,ED50,Mus musculus [6],119 mg/kg
same,TD50,Mus musculus [3],181 mg/kg
c1ccc(-n2nncc2-c2cccnc2)cc1,ED50,Mus musculus [1],76.4 mg/kg
same,selectivity ratio,[4],1.7
same,selectivity ratio,[5],3.3
same,ED50,Mus musculus [6],39.7 mg/kg
same,TD50,Mus musculus [3],133 mg/kg
Fc1ccc(N2N=NCC2c2ccncc2)cc1 (configuration not stated),ED50,Mus musculus [1],239 mg/kg
same,selectivity ratio,[4],2.5
same,selectivity ratio,[5],2.9
same,ED50,Mus musculus [6],203 mg/kg
same,TD50,Mus musculus [3],586 mg/kg
Clc1ccc(-n2nncc2-c2ccccn2)cc1,ED50,Mus musculus [1],95.2 mg/kg
same,selectivity ratio,[4],2.5
same,selectivity ratio,[5],4.6
same,ED50,Mus musculus [6],50.4 mg/kg
same,TD50,Mus musculus [3],234 mg/kg
FC(F)(F)c1cccc(N2N=NCC2c2ccncc2)c1 (configuration not stated),ED50,Mus musculus [1],52.1 mg/kg
same,selectivity ratio,[4],2.63
same,selectivity ratio,[5],2.69
same,ED50,Mus musculus [6],51 mg/kg
same,TD50,Mus musculus [3],137 mg/kg
Clc1cccc(-n2nncc2-c2ccncc2)c1,ED50,Mus musculus [1],38 mg/kg
same,selectivity ratio,[4],1.8
same,selectivity ratio,[5],2.4
same,ED50,Mus musculus [6],29.2 mg/kg
same,TD50,Mus musculus [3],68.7 mg/kg
FC(F)(F)c1cccc(-n2nncc2-c2ccncc2)c1,ED50,Mus musculus [1],68.2 mg/kg
same,selectivity ratio,[4],0.99
same,selectivity ratio,[5],1.52
same,ED50,Mus musculus [6],44.7 mg/kg
same,TD50,Mus musculus [3],68 mg/kg
Clc1ccc(-n2nncc2-c2ccccc2)cc1,ED50,Mus musculus [1],233 mg/kg
same,selectivity ratio,[4],2
same,selectivity ratio,[5],4.9
same,ED50,Mus musculus [6],95.2 mg/kg
same,TD50,Mus musculus [3],466 mg/kg
Clc1ccc(-n2nncc2-c2cccnc2)cc1,ED50,Mus musculus [1],65.8 mg/kg
same,selectivity ratio,[4],3.7
same,selectivity ratio,[5],9.1
same,ED50,Mus musculus [6],26.9 mg/kg
same,TD50,Mus musculus [3],245 mg/kg
FC(F)(F)c1ccc(-n2nncc2-c2cccnc2)cc1,ED50,Mus musculus [1],92.3 mg/kg
same,selectivity ratio,[4],4.1
same,selectivity ratio,[5],4.2
same,ED50,Mus musculus [6],90.5 mg/kg
same,TD50,Mus musculus [3],379 mg/kg
c1ccc(-n2nncc2-c2ccncc2)cc1,ED50,Mus musculus [1],78.8 mg/kg
same,selectivity ratio,[4],2
same,selectivity ratio,[5],2.1
same,ED50,Mus musculus [6],73.7 mg/kg
same,TD50,Mus musculus [3],157 mg/kg
Fc1ccc(-n2nncc2-c2cccnc2)cc1,ED50,Mus musculus [1],74.6 mg/kg
same,selectivity ratio,[4],2.5
same,selectivity ratio,[5],3.5
same,ED50,Mus musculus [6],47.9 mg/kg
same,TD50,Mus musculus [3],168 mg/kg
Clc1ccc(N2N=NCC2c2ccncc2)cc1 (configuration not stated),ED50,Mus musculus [1],257 mg/kg
same,selectivity ratio,[4],4.4
same,selectivity ratio,[5],26
same,TD50,Mus musculus [3],1130 mg/kg
Fc1ccc(-n2nncc2-c2ccccn2)cc1F,ED50,Mus musculus [1],62.5 mg/kg
same,selectivity ratio,[4],3.1
same,selectivity ratio,[5],1.6
same,ED50,Mus musculus [6],123 mg/kg
same,TD50,Mus musculus [3],123 mg/kg
Brc1ccc(-n2nncc2-c2ccccn2)cc1,ED50,Mus musculus [1],68 mg/kg
same,selectivity ratio,[4],3.9
same,selectivity ratio,[5],3
same,ED50,Mus musculus [6],88.6 mg/kg
same,TD50,Mus musculus [3],265 mg/kg
c1ccc(N2N=NCC2c2ccncc2)cc1 (configuration not stated),ED50,Mus musculus [1],165 mg/kg
same,selectivity ratio,[4],3.6
same,selectivity ratio,[5],5.6
same,ED50,Mus musculus [6],107 mg/kg
same,TD50,Mus musculus [3],590 mg/kg
CCC1(C)CC(=O)NC1=O (configuration not stated) [ETHOSUXIMIDE],ED50,Mus musculus [6],130 mg/kg
same,TD50,Mus musculus [3],441 mg/kg
CCC1(c2ccccc2)C(=O)NC(=O)NC1=O [PHENOBARBITAL],TD50,Mus musculus [3],69 mg/kg
CCCC(CCC)C(=O)O [VALPROIC ACID],ED50,Mus musculus [1],272 mg/kg
same,ED50,Mus musculus [6],149 mg/kg
